Laboratory results reported in US11406622B2, “Glaucocalyxin a derivative, pharmaceutically acceptable salt thereof, or pharmaceutical composition thereof and uses thereof in preparation of drugs for treating psoriasis” (SUZHOU PHARMAVAN CO., LTD., priority 2017, dated 2022).
Where a name gives a salt, the structure may show the parent alone.

Each compound was assayed on human keratinocytes (HaCaT) (assay: Effect on proliferation of human keratinocytes, CCK-8, 48 h (Example 5)). Details: 48 hours of treatment.
Assay type: cell-based
Procedure: In this example, the glaucocalyxin A derivatives of the present application, or pharmaceutically acceptable salts thereof, were examined for the effect on the proliferation of human keratinocytes. In this example, the glaucocalyxin A derivatives as shown in Table 1 were examined by using the following procedure. A cell suspension was prepared and inoculated into three 96-well plates at 8000 cells in a volume of 150 μl per well, which were then cultured overnight in an incubator at 37° C., 5% CO2. On the next day, 50 μl of test compound solution at different concentrations was added to each well. Triplicate wells were set up for each concentration. A vehicle control group (without compound), a cell control group (without compound and vehicle), and a blank medium control group (without cells, a well for null adjustment) were also set up, and cultured for an additional 48 hours. CCK-8 staining working solution was added at 110 μL per well, and cultured for additional 1-4 h. At the end of the culture, the absorbances were measured at 450 nm (OD450 nm) on a Bio-Tek enzyme-linked immunosorbent assay. The results were expressed as the mean OD450 nm value of triplicates±standard deviation (x±sd). The Origin 7.0 was used for plotting and analysis. A fitting curve was obtained by plotting the OD value of each group against the logarithmic concentration of the test compound, and then the IC50 value was determined.
For `C=C1C(=O)C23C(O)CC4C(C)(C)c5nc(N)sc5CC4(C)C2CCC1C3O` (stereo not shown) [Compound 01], the IC50 was 3.21 µM. `C=C1C(=O)C23C(O)CC4C(C)(C)c5nc(N)sc5CC4(C)C2CCC1C3O` (stereo not shown) [Compound 02] gave an IC50 of 3.52 µM. In the case of `C=C1C(=O)C23C(O)CC4C(C)(C)c5nc(N)sc5CC4(C)C2CCC1C3O` (stereo not shown) [Compound 03], the IC50 is reported as 4.02 µM. `C=C1C(=O)C23C(O)CC4C(C)(C)c5nc(N)sc5CC4(C)C2CCC1C3O` (stereo not shown) [Compound 04] gave an IC50 of 4.1 µM. For `C=C1C(=O)C23C(O)CC4C(C)(C)c5nc(N)sc5CC4(C)C2CCC1C3O` (stereo not shown) [Compound 05], the IC50 was 3.45 µM. `C=C1C(=O)C23C(O)CC4C(C)(C)c5nc(N)sc5CC4(C)C2CCC1C3O` (stereo not shown) [Compound 06] showed an IC50 of 2.91 µM. For `C=C1C(=O)C23C(O)CC4C(C)(C)c5nc(N)sc5CC4(C)C2CCC1C3O` (stereo not shown) [Compound 07], the IC50 was 3.28 µM. With `C=C1C(=O)C23C(O)CC4C(C)(C)c5nc(N)sc5CC4(C)C2CCC1C3O` (stereo not shown) [Compound 08] the IC50 was 2.85 µM. For `C=C1C(=O)C23C(O)CC4C(C)(C)c5nc(N)sc5CC4(C)C2CCC1C3O` (stereo not shown) [Compound 09], the IC50 was 2.42 µM. `C=C1C(=O)C23C(O)CC4C(C)(C)c5nc(N)sc5CC4(C)C2CCC1C3O` (stereo not shown) [Compound 10] gave an IC50 of 3.86 µM. `C=C1C(=O)C23C(O)CC4C(C)(C)c5nc(N)sc5CC4(C)C2CCC1C3O` (stereo not shown) [Compound 11] was tested, and the IC50 was 3 µM. With `C=C1C(=O)C23C(O)CC4C(C)(C)c5nc(NN)sc5CC4(C)C2CCC1C3O` (stereo not shown) [Compound 12] the IC50 was 1.21 µM. `C=C1C(=O)C23C(O)CC4C(C)(C)c5nc(Nc6ccncc6)sc5CC4(C)C2CCC1C3O` (stereo not shown) [Compound 13] gave an IC50 of 3.62 µM. `C=C1C(=O)C23C(O)CC4C(C)(C)c5nc(NCCC)sc5CC4(C)C2CCC1C3O` (stereo not shown) [Compound 14] showed an IC50 of 7 µM. `C=C1C(=O)C23C(O)CC4C(C)(C)c5nc(NC(C)C)sc5CC4(C)C2CCC1C3O` (stereo not shown) [Compound 15] showed an IC50 of 6.95 µM. For `C=C1C(=O)C23C(O)CC4C(C)(C)c5nc(NCCCC)sc5CC4(C)C2CCC1C3O` (stereo not shown) [Compound 16], the IC50 was 8.88 µM. For `C=C1C(=O)C23C(O)CC4C(C)(C)c5nc(NCCCCCC)sc5CC4(C)C2CCC1C3O` (stereo not shown) [Compound 17], the IC50 was 4.29 µM. For `C=CCNc1nc2c(s1)CC1(C)C(CC(O)C34C(=O)C(=C)C(CCC13)C4O)C2(C)C` (stereo not shown) [Compound 18], the IC50 was 7.24 µM. In the case of `C=C1C(=O)C23C(O)CC4C(C)(C)c5nc(NC6CCCCC6)sc5CC4(C)C2CCC1C3O` (stereo not shown) [Compound 19], the IC50 is reported as 8.16 µM. Work on `C=C1C(=O)C23C(O)CC4C(C)(C)c5nc(Nc6ccccc6)sc5CC4(C)C2CCC1C3O` (stereo not shown) [Compound 20] yielded an IC50 of 9.31 µM. `C=C1C(=O)C23C(O)CC4C(C)(C)c5nc(NCc6ccccc6)sc5CC4(C)C2CCC1C3O` (stereo not shown) [Compound 21] showed an IC50 of 9.2 µM. For `C=C1C(=O)C23C(O)CC4C(C)(C)c5nc(N(C)C)sc5CC4(C)C2CCC1C3O` (stereo not shown) [Compound 22], the IC50 was 0.95 µM. With `Br.C=C1C(=O)C23C(O)CC4C(C)(C)c5nc(NC)sc5CC4(C)C2CCC1C3O` (stereo not shown) [Compound 24] the IC50 was 3.17 µM. In the case of `C=C1C(=O)C23C(O)CC4C(C)(C)c5nc(NCC)sc5CC4(C)C2CCC1C3O` (stereo not shown) [Compound 25], the IC50 is reported as 5.49 µM. Compound `C=C1C(=O)C23C(O)CC4C(C)(C)c5nc(NCCC)sc5CC4(C)C2CCC1C3O` (stereo not shown) [Compound 26] has an IC50 of 7.86 µM. In the case of `C=C1C(=O)C23C(O)CC4C(C)(C)c5nc(NC(C)C)sc5CC4(C)C2CCC1C3O` (stereo not shown) [Compound 27], the IC50 is reported as 6.92 µM. Compound `C=C1C(=O)C23C(O)CC4C(C)(C)c5nc(N(CC)CC)sc5CC4(C)C2CCC1C3O` (stereo not shown) [Compound 28] has an IC50 of 1.26 µM. For `C=C1C(=O)C23C(O)CC4C(C)(C)c5nc(N(CCC)CCC)sc5CC4(C)C2CCC1C3O` (stereo not shown) [Compound 29], the IC50 was 1.85 µM. `C=C1C(=O)C23C(O)CC4C(C)(C)c5nc(N(C(C)C)C(C)C)sc5CC4(C)C2CCC1C3O` (stereo not shown) [Compound 30] gave an IC50 of 2.37 µM.

Same assay, conditions: Homo sapiens, 48 hours of treatment
Compound `C=C1C(=O)[C@@]23[C@H](O)C[C@@H]4C(C)(C)C(=O)CC[C@@]4(C)[C@@H]2CC[C@@H]1[C@H]3O` [Compound 31, glaucocalyxin A] has an IC50 of 30.5 µM. For `CN(C)C[C@@H]1C(=O)C23C(O)C1CCC2[C@]1(C)CCC(=O)C(C)(C)[C@H]1C[C@H]3O` (stereo partly shown) [Compound 32, dimethylamino glaucocalyxin A hydrochloride, reference compound], the IC50 was 18.7 µM.

What follows are compounds tested on mouse spleen lymphocytes (assay: ConA-induced proliferation of mouse spleen lymphocytes, MTT (Example 8)). Details: Table 4, 0.001 μg/mL, 48 h, 5 μg/mL ConA.
Assay type: cell-based
Procedure: In this example, the glaucocalyxin A derivatives and pharmaceutically acceptable salts thereof were detected for the effect thereof on ConA-induced proliferation of mouse spleen lymphocytes.
2×10^7/mL cell suspension was prepared and a 5 μg/μL ConA stock solution was added thereto at a final concentration of 5 μg/mL. The resulting mixture was inoculated into a 96-well culture plate at 0.1 mL per well. Then 0.1 mL of test compound at different concentrations was added to each well. Triplicate or quadruplicate wells were set up for each group, and a vehicle control group (without compound), a stimulant control group (with ConA, without compound, and without vehicle), a cell control group (without ConA, without compound, and without vehicle), and a blank medium control group (without cells, a well for null adjustment) were also set up, and cultured at 37° C., 5% CO2 for 48 h. MTT solution at 5 mg/mL was added at 20 μl per well, and cultured for an additional 4 hours. The culture plate was taken out and centrifuged at 1000 rpm for 10 min. The supernatant of each well was aspirated, and 100 μL of SDS cell lysis solution was added to each well, and cultured overnight. On the next day, the absorbance at 550 nm (OD550nm) was measured on an enzyme-linked immunoassay analyzer. The results were expressed as the mean OD550nm value of the triplicates or quadruplicates±standard deviation (x±sd). SPSS software version 17.0 was used for statistical analysis of the mean values, that is, the vehicle group was compared with the stimulant group, and the test group of each compound concentration was compared with the corresponding vehicle control group. The cell survival rate of each group was calculated according to the mean value for the compound treatment group and the mean value for the vehicle control group, that is, the cell survival rate (%)=the mean value for the compound treatment group/the mean value for the vehicle control group×100%. A linear regression equation was obtained by plotting the cell survival rate of each group against the concentration of the test compound, statistical test of the correlation coefficient was conducted, and then the IC50 value was determined.
With `CC(C)[C@]12O[C@H]1[C@@H]1O[C@]13[C@]1(O[C@H]1C[C@H]1C4=C(CC[C@@]13C)C(=O)OC4)[C@@H]2O` [triptolide, reference compound] the “OD550nm value (x ± sd)” value was 1.03 and the “Survival rate (%)” value was 98%.

Same assay, conditions: Table 4, 0.1 μg/mL, 48 h, 5 μg/mL ConA
For `CC(C)[C@]12O[C@H]1[C@@H]1O[C@]13[C@]1(O[C@H]1C[C@H]1C4=C(CC[C@@]13C)C(=O)OC4)[C@@H]2O` [triptolide, reference compound], the “OD550nm value (x ± sd)” value was 0.42 and the “Survival rate (%)” value was 40%.

Same assay, conditions: range of concentrations tested, 48 h, 5 μg/mL ConA
`CC(C)[C@]12O[C@H]1[C@@H]1O[C@]13[C@]1(O[C@H]1C[C@H]1C4=C(CC[C@@]13C)C(=O)OC4)[C@@H]2O` [triptolide, reference compound] was tested, and the “effect on ConA-induced proliferation of mouse spleen lymphocytes (in words)” value was “varying degrees of inhibition”.

The compounds below were run on BALB/c mice (assay: Acute toxicity in BALB/c mice, single tail-vein injection (Example 9)). Details: single intravenous injection, 10 mg/kg.
Assay type: in vivo, mouse
From the text: In this example, Compound 23 and Compound 24 were detected for their acute toxicities, and the detection method was as follows.
Experimental procedure: 40 BALB/c mice, half male and half female, were randomly divided into groups after weight measurement. The weight of an individual should be within the range of the average body weight±20%. Animals should be allowed to acclimatize to the environment for at least 5 days before the test, and healthy (if female, it must be un-pregnant) mice were selected as test animals. The main inspections during the acclimatization period included: whether it met the quality indicators required at the time of ordering; general state check; and whether the weight reached the weight range required by the test. Unqualified abnormal animals were not included in this test. A single tail-vein injection was administrated to the mice at a low, medium, or high dose, which was 5 mg/kg, 10 mg/kg, or 40 mg/kg respectively according to a blank preparation pre-test. An equal volume of vehicle was intravenously injected to establish a control group.
Mice were observed once respectively at 0 to 2 hours and 4 to 6 hours after each administration. If toxic symptoms occurred, the number of observations could be increased. (2) Gross anatomy observation: All the surviving mice in each group were dissected and observed on the 8th day of the experiment. The abnormal organs and tissues found in the observation of administration sites and in the gross anatomy observation that might be related to the test samples were photographed and recorded. (3) Disposal of dying animals: The state of the mouse and the observation time were recorded, and the body weight was measured. (4) Disposal of dead animals: The time of death or the time when the death was found was recorded, the body weight was measured, and then the dissection was quickly performed for gross observation to speculate the cause of death.
With `Br.C=C1C(=O)C23C(O)CC4C(C)(C)c5nc(NC)sc5CC4(C)C2CCC1C3O` (stereo not shown) [Compound 24] the animals that died was “All animals”.
